The source of these data is US20220362311A1, “OPTIMIZED BACTERIA ENGINEERED TO TREAT DISORDERS INVOLVING THE CATABOLISM OF LEUCINE, ISOLEUCINE, AND/OR VALINE” (Synlogic Operating Company, Inc., priority 2019, published 2022).

Read-outs that look alike come from different tables or passages of the source. Bounds are passed on as bounds.

In one data set the test system is rat. To be noted: cited from earlier work.
The nature of data set [1]: High-throughput Adh activity assay in E. coli cell lysates. Format: biochemical. To be noted: reduction of isovaleraldehyde to isopentanol; secondary screen. How it is done: Cell growth and enzyme preparation. Strains harboring library plasmids were transformed into an E. coli T7 expression host. 5 μL/well of thawed glycerol stocks were stamped into 500 μL/well of LB+100 ug/mL Carbenicillin (LB-Carb100) in half-height deepwell plates, which were sealed with AeraSeals. Samples were incubated at 37° C. and shaken at 1000 RPM in 80% humidity overnight. 50 μL/well of the resulting precultures were stamped into 450 μL/well of LB-Carb100+1 mM IPTG in half-height deepwell plates, which were sealed with AeraSeals. Samples were incubated at 30° C. and shaken at 1000 RPM in 80% humidity overnight. […]
10 uL of lysate was transferred to a half-area flat-bottom plate containing 90 uL/well assay buffer (50 mM MOPS buffer, 0.4 mM NADH, and 30 mM isovaleraldehyde, pH 7.0). Optical absorbance measurements were taken on a plate reader at 340 nm for 10 minutes. […]
To screen the 3×˜1300-member enzyme libraries, high-throughput methods were developed to screen for LeuDH, KivD, and Adh enzyme activities in E. coli cell lysates. […] Cells were lysed, and enzyme activity was measured in cell lysates using enzyme-specific spectrophotometric assays described above in the method section. […]
For each enzyme family, the full library (˜1300 members each) was measured in biological duplicate, and hits were selected based on the highest activity in a single replicate for each enzyme. […]

For the molecule `CCC(C)CO` (stereo not drawn) [2-methylbutanol], in the data set on rat (oral), the “Oral LD50 (rat)” value is given as 4170 mg/kg.

`CCC(C)C=O` (stereo not drawn) [2-methylbutyraldehyde]: the “Oral LD50 (rat)” value with rat (oral) is recorded as 6884 mg/kg.

For `CC(C)CO` [Isobutanol], in the data set with rat (oral), the “Oral LD50 (rat)” value is 3350 mg/kg and the “Oral NOAEL* (rat) (No-Observed-Adverse-Effect)” value is >1450 mg/kg/day.

For `CC(C)C(=O)O` [Isobutyric acid], the “Oral LD50 (rat)” value with rat (oral) is listed as 2230 mg/kg.

Take `CC(C)CCO` [Isopentanol]: the “Oral NOAEL* (rat) (No-Observed-Adverse-Effect)” value in the data set with rat (in vivo, po) is 1250 mg/kg/day. Also, in the data set with rat (oral), the “Oral LD50 (rat)” value was >5000 mg/kg.

Regarding `CC(C)CC=O` [Isovaleraldehyde], the “Oral LD50 (rat)” value with rat (oral) is reported as 5740 mg/kg.

B1: ADH2 enzyme from S. cerevisiae: parent alcohol dehydrogenase ADH2 from S. cerevisiae (protein, UniProt P00331 2-348, looked up)
Alcohol dehydrogenase 2: SIPETQKAIIFYESNGKLEHKDIPVPKPKPNELLINVKYSGVCHTDLHAWHGDWPLPTKLPLVGGHEGAGVVVGMGENVKGWKIGDYAGIKWLNGSCMACEYCELGNESNCPHADLSGYTHDGSFQEYATADAVQAAHIPQGTDLAEVAPILCAGITVYKALKSANLRAGHWAAISGAAGGLGSLAVQYAKAMGYRVLGIDGGPGKEELFTSLGGEVFIDFTKEKDIVSAVVKATNGGAHGIINVSVSEAAIEASTRYCRANGTVVLVGLPAGAKCSSDVFNHVVKSISIVGSYVGNRADTREALDFFARGLVKSPIKVVGLSSLPEIYEKMEKGQIAGRYVVDTSK
B1: the “increase in Adh activity relative to the background lysate activity” value in data set [1] is on record as “did not exhibit activity greater than the background lysate alcohol dehydrogenase activity”.
